Source: patent US6346536B1, “Poly(ADP-ribose) polymerase inhibitors and method for treating neural or cardiovascular tissue damage using the same” (Guilford Pharmaceuticals Inc., priority 1997, dated 2002)
Like-named read-outs stand apart in the source and are kept apart here. Blank lines part the entries; values can stand above or below the compound they belong to.

Tests used:
[1] = target: T1, purified recombinant human PARP (Homo sapiens, UniProt P09874); assay: PARP enzyme assay using purified recombinant human PARP, [3H]NAD incorporation; type: biochemical; settings: 25° C., 15 minutes, 3.0 micromolar [3H]NAD, read-out: Approximate IC50's
T1 construct: purchased Trevigen (Gaithersburg, Md.)
T1 sequence (P09874 whole entry): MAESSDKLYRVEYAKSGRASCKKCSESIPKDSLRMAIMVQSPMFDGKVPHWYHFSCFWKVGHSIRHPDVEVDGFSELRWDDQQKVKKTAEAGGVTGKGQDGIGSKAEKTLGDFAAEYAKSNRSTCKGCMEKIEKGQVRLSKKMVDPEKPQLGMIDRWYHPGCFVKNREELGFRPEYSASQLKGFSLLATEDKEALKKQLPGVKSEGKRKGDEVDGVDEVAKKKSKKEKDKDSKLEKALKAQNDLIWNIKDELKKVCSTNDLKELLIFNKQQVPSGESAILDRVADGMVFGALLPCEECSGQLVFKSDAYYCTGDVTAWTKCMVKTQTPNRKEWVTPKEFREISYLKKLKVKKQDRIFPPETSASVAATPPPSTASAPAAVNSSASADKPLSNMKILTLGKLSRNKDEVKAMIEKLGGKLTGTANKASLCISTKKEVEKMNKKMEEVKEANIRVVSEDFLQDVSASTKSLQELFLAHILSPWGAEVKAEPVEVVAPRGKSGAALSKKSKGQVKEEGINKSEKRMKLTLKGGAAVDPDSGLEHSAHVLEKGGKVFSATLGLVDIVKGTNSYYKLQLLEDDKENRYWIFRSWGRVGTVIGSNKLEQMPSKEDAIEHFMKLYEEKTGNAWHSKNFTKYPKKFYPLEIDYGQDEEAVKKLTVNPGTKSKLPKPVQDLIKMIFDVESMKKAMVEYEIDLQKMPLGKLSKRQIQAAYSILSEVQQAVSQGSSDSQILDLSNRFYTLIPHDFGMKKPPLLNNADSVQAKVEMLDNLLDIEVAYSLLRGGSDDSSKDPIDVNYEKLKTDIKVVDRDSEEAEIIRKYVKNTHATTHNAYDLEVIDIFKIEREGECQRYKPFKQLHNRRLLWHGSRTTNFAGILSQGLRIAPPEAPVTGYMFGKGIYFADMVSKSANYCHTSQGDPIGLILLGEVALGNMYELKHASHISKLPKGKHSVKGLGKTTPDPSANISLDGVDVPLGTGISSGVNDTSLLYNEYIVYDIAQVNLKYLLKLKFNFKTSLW
Protocol: The reaction is initiated by incubating the mixture at 25° C. After 15 minutes' incubation, the reaction is terminated by adding 500 microliters of ice cold 20% (w/v) trichloroacetic acid. The precipitate formed is transferred onto a glass fiber filter (Packard Unifilter-GF/B) and washed three times with ethanol. After the filter is dried, the radioactivity is determined by scintillation counting.

[2] = test system: ischemia and reperfusion of the heart; settings: rabbits, cited from earlier work
PARP = settings: read-out: IC50 for inhibiting PARP; reported by Suto et al.; cited from earlier work
[3] = test system: cell viability, glucose metabolism, and DNA synthesis; settings: Milam et al., Science 1984; cited from earlier work

IC50 [1]: 5 µM
Compound: O=c1[nH]cc([N+](=O)[O-])c2ccccc12

IC50 ([1]; unit μm [sic]): 30 µM
Compound: O=c1[nH]c(-c2ccccc2)cc2ccccc12

IC50 [1]: 10 µM
Compound: O=C(O)c1c[nH]c(=O)c2ccccc12

IC50 [1]: 10 µM
Compound: O=c1[nH]ccc2c([N+](=O)[O-])cccc12

IC50 [1]: 0.8 µM
Compound: COC(=O)c1c[nH]c(=O)c2ccccc12

Further lines, the compound ahead of its results:

Compound: Oc1cccc2c(O)nccc12 [1,5-dihydroxyisoquinoline]
reduction in infarct size ([2]; single injection 1 mg/kg): 38-48%

Compound: O=C1NCCc2c(OCCCCN3CCCCC3)cccc21 [3,4-dihydro-5-[4-(1-piperidinyl)butoxy]1(2H)-isoquinolinone]
IC50 (PARP): 0.04 µM

Compound: NC(=O)c1cccc(N)c1 [3-aminobenzamide]
side effects on other metabolic processes [3]: affect cell viability, glucose metabolism, and DNA synthesis | reduction in infarct size in the heart ([2]; single injection 10 mg/kg, one minute before occlusion or one minute before reperfusion): 32-42%

Compound: NC(=O)c1ccccc1 [benzamide]
side effects on other metabolic processes [3]: affect cell viability, glucose metabolism, and DNA synthesis
